Read-outs that look alike come from different tables or passages of the source.
Key:
[1] = male, human, in vivo
Protocol: (§1) An open-label, inpatient, multiple-dose tigecycline, single-dose [^14C]tigecycline metabolic disposition and mass balance study was performed in six healthy male volunteers. The clinical protocol called for twelve subjects. Of these twelve, six received the radioactive dose (subjects 1, 4, 5, 6, 7, and 8 with subject 8 later dropping out of the study.) Eligible subjects were selected based on inclusion/exclusion criteria, medical history, physical examination and additional procedures outlined in the study protocol. Each subject received a 100 mg loading dose on the morning of Day 1, followed by a 50 mg maintenance dose every 12 hours for an additional 5 doses. On the morning of study Day 4, six subjects received a single 50 mg dose of [^14C]tigecycline (50 μCi). Each tigecycline dose was administered via a 30-minute intravenous infusion.
(§2) Serum samples were collected for metabolite profiling prior to tigecycline dosing and 1, 4, 8, 24 and 48 hours following the [^14C]-labeled dose. For metabolite profiling, urine samples were collected at 0-4, 4-8, 8-24 and 24-48 hours and fecal samples were collected up to 48 hours following the [^14C]-labeled dose. Serum and urine samples, and fecal homogenates were shipped on dry ice to the Biotransformation Division of Drug Safety and Metabolism, Wyeth Research, Collegeville, Pa. The details of the sample collection and sample storage are described in the mass balance portion of the study. The 24-48 hour urine and fecal samples for subject #6 were incomplete since the subject withdrew from the study. While samples from this subject were used for metabolite profiling, the samples were not included in the mass balance calculations.
Individual fecal sample homogenates, prepared from each fecal sample collected up to 48 hours following the [^14C]-labeled tigecycline dose, that contained greater than 8000 dpm/g were analyzed for metabolite profiles. The preparation of the fecal sample homogenates is described in detail in the mass balance portion of the study. Briefly, fecal samples were homogenized with 3 to 4 volumes of ice-cold water by weight at ABC Laboratories (Columbia, Mo.) and shipped frozen to the Biotransformation Division of Drug Safety and Metabolism, Wyeth Research, Collegeville, Pa. For the extraction of radioactivity, fecal homogenates were thawed on ice and aliquots (approximately 1 g) transferred to 15 mL tubes. Three volumes of acetone were added and the samples mixed for 1 minute using a multi-tube vortex mixer. Samples were centrifuged for 15 minutes at 2500 rpm and 4° C. in a Sorvall Super T21 centrifuge. The supernatant was transferred to a fresh tube and the pellet re-suspended with 1 mL of water and 80 μL of 0.5 M EDTA, and re-extracted as described above. The pellet was re-extracted in this manner a total of three times and the supernatants pooled. The supernatant was evaporated to dryness under a stream of nitrogen using a Turbovap Model LV. The residue was re-suspended in 500 μL of water and centrifuged for 10 minutes at 14,000 rpm and room temperature using a Model 5415C Eppendorf centrifuge. The supernatant was transferred to an HPLC vial, assayed for radioactivity and for metabolite profiles using HPLC with radioactivity detection. Selected samples were also analyzed by LC/MS.
(§3) HPLC analyses were performed using a Waters 2695 Alliance Separation Module (Waters Corp., Milford, Mass.), a Waters Model 2487 dual wavelength UV absorbance detector, set to monitor 350 nm, and was in-line with a Gilson 215 liquid handler (Gilson, Middleton, Wis.) equipped to collect fractions at 20 second intervals.

[2] = in vivo
Protocol: as §1, §2
Individual serum samples, collected 1, 4 and 8 hours following the [^14C]-labeled tigecycline dose, were analyzed for metabolite profiles. […] In order to minimize the sample volume, each serum sample was divided into two samples of equal volume (approximately 9 Ml each) and extracted and analyzed separately. […] The residue was reconstituted in 300 μL of acetonitrile/water (1:9), centrifuged for 10 minutes at 14,000 rpm and room temperature using a Model 5415C Eppendorf centrifuge (Brinkmann Instruments, Westbury, N.Y.) and assayed for radioactivity and by HPLC. Selected samples were also analyzed by LC/MS.
as §3, with “intervals. Fractions were collected into 96-well deep well Luma plates and analyzed using TopCount NXT. […]” for “intervals.”

| Compound | percent of the fecal radioactivity [1] | Estimated Concentrations in fecal homogenate ([1]; 24.2 h) | Relative Distribution (%) of radioactivity in extracted fecal homogenate ([1]; 24.2 h) [%] | Estimated Concentrations in fecal homogenate ([1]; 24.6 h) | Relative Distribution (%) of radioactivity in extracted fecal homogenate ([1]; 24.6 h) [%] | Estimated Concentrations in fecal homogenate ([1]; 25.2 h) | Relative Distribution (%) of radioactivity in extracted fecal homogenate ([1]; 25.2 h) [%] | Estimated Concentrations in fecal homogenate ([1]; 29.8 h) | Relative Distribution (%) of radioactivity in extracted fecal homogenate ([1]; 29.8 h) [%] | Estimated Concentrations in fecal homogenate ([1]; 30 h) | Relative Distribution (%) of radioactivity in extracted fecal homogenate ([1]; 30 h) [%] | Estimated Concentrations in fecal homogenate ([1]; 32 h) | Relative Distribution (%) of radioactivity in extracted fecal homogenate ([1]; 32 h) [%] | Estimated Concentrations in fecal homogenate ([1]; 34.2 h) | Relative Distribution (%) of radioactivity in extracted fecal homogenate ([1]; 34.2 h) [%] | Estimated Concentrations in fecal homogenate ([1]; 41.8 h) | Relative Distribution (%) of radioactivity in extracted fecal homogenate ([1]; 41.8 h) [%] | percent of the radioactivity in serum ([2]; male, human) | other results |
| --- | --- | --- | --- | --- | --- | --- | --- | --- | --- | --- | --- | --- | --- | --- | --- | --- | --- | --- | --- |
| CC(C)(C)NCC(=O)O [Metabolite M3a, t-butylaminoacetic acid] | 4-14% | (0.30) mg-Tigecycline Equivalents/Collection | 13.9 | (0.25) mg-Tigecycline Equivalents/Collection | 6.2 | (0.81) mg-Tigecycline Equivalents/Collection | 7.5 | (0.49) mg-Tigecycline Equivalents/Collection | 4.1 | (0.55) mg-Tigecycline Equivalents/Collection | 5.9 | (0.20) mg-Tigecycline Equivalents/Collection | 4.2 | (0.17) mg-Tigecycline Equivalents/Collection | 3.9 | (0.56) mg-Tigecycline Equivalents/Collection | 6.7 | 10-20% | – |
| CN(C)c1cc(NC(=O)CNC(C)(C)C)c(O)c2c1C[C@H]1C[C@H]3C(N(C)C)C(O[C@@H]4O[C@H](C(=O)O)[C@@H](O)[C@H](O)[C@H]4O)=C(C(N)=O)C(=O)[C@@]3(O)C(O)=C1C2=O (stereo in doubt) [Metabolite M7, tigecycline glucuronide] | 10-26% | 0.51 mg-Tigecycline Equivalents/Collection | 23.5 | 0.40 mg-Tigecycline Equivalents/Collection | 9.8 | 1.1 mg-Tigecycline Equivalents/Collection | 10.4 | 2.6 mg-Tigecycline Equivalents/Collection | 21.6 | 1.2 mg-Tigecycline Equivalents/Collection | 13.3 | 0.49 mg-Tigecycline Equivalents/Collection | 10.4 | 1.1 mg-Tigecycline Equivalents/Collection | 26.3 | 1.8 mg-Tigecycline Equivalents/Collection | 21.3 | – | – |
| CN(C)c1cc(NC(=O)CNC(C)(C)C)c(O)c2c1C[C@H]1C[C@H]3[C@H](N(C)C)C(O)=C(C(N)=O)C(=O)[C@@]3(O)C(O)=C1C2=O [Tigecycline] | 28-51% | 0.97 mg-Tigecycline Equivalents/Collection | 44.9 | 2.0 mg-Tigecycline Equivalents/Collection | 47.7 | 4.3 mg-Tigecycline Equivalents/Collection | 39.9 | 4.7 mg-Tigecycline Equivalents/Collection | 39.1 | 4.5 mg-Tigecycline Equivalents/Collection | 48.3 | 2.4 mg-Tigecycline Equivalents/Collection | 50.7 | 1.4 mg-Tigecycline Equivalents/Collection | 32.8 | 2.4 mg-Tigecycline Equivalents/Collection | 28.1 | – | percent of fecal radioactivity after correcting for the epimer formed during the extraction process [1]: 39-66%; percent of serum radioactivity after correcting for the epimer formed during the extraction ([2]; male, human): 59-80% |
| CN(C)c1cc(NC(=O)CNC(C)(C)C)c(O)c2c1C[C@H]1C[C@H]3[C@@H](N(C)C)C(O[C@@H]4O[C@H](C(=O)O)[C@@H](O)[C@H](O)[C@H]4O)=C(C(N)=O)C(=O)[C@@]3(O)C(O)=C1C2=O [Metabolite M6, epimer of tigecycline glucuronide] | up to 9% | 0.13 mg-Tigecycline Equivalents/Collection | 5.8 | – | – | 0.44 mg-Tigecycline Equivalents/Collection | 4.1 | 0.82 mg-Tigecycline Equivalents/Collection | 6.8 | 0.52 mg-Tigecycline Equivalents/Collection | 5.6 | 0.14 mg-Tigecycline Equivalents/Collection | 3.0 | 0.32 mg-Tigecycline Equivalents/Collection | 7.5 | 0.75 mg-Tigecycline Equivalents/Collection | 8.9 | less than 4% | detection in serum samples [2]: approximately half the serum samples |

— patent publication US7534766B2, “Glucuronide metabolites and epimers thereof of tigecycline” (Wyeth, priority 2004, dated 2009)
